Where two headings read alike, the source gives them in different places.
Assays:
PDGFRβ = PDGFRβ (Rattus norvegicus (Rat), UniProt Q05030); assay: PDGFRβ Cellular Assay (PDGFRb P-Y751 HTRF, PDGF-BB stimulated A10 cells); format: cell-based
Experimental: Cell Culture and Preparation: Cells are cultured according to ATCC procedure (5) with the addition of the antibiotic penicillin-streptomycin. If working from frozen, cells should be thawed according to ATCC procedure. Depending on the cell density of frozen vial, cells will need time to recover from thaw. An 80% confluent T75 flask should be enough for one 384 well plate.
Stock Solutions: Rat PDGFBB. A 100 ug/mL stock is prepared by reconstituting 50 ug in 500 μL of 4 mM HCl and 0.1% BSA. It can be stored for a month at 4° C., or aliquoted out and frozen in the −20/−80° C. to avoid multiple free-thaw cycles.
1× Cisbio cell lysis buffer. The cell lysis buffer is diluted 4-fold with molecular grade water. The blocking agent is then diluted 25-fold in the diluted lysis buffer.
Antibody solutions. Equal amounts d2 and cryptate antibody are diluted 20-fold in detection buffer.
Rat PDGFBB. A working stock of 100 ng/mL is created from the stock solution in 10% FBS culture media.
Step 1: Plating Cells: Media from the A10 cell flask is aspirated. The cells are rinsed with PBS and then trypsinized to disperse the cell layer. The cells are then pelleted are resuspended to 1.25e5 cells/mL. […] Plates are covered and placed in the incubator (37° C. 5% CO2) overnight to allow cells to adhere.
Step 2: Compound Dispense: Approximately 18 hours after plating, dispense 40 nL compound onto cells using Echo. […] The plate is returned to the incubator for 3 hours.
After 10 minutes the media is removed by flicking the plate.
Step 4: Cell lysis and antibody addition: 20 uL lysis buffer per well is added to the plate via Tempest. 5 uL antibody solution is added per well via the Tempest. The plate is placed on the shaker at 230 rpm for 1 hour at room temperature.
Step 5: Detection: The plate is read using the HTRF module on the BMG Pherastar. Data is analyzed using Genedata Screener.
IC50 values are determined from a 4-parameter fit, using the following equation: Y=Bottom+(Top−Bottom)/(1+10((Log IC50−X)*Hill slope)), where X=log10 of the compound concentration; top can be defined by PC; bottom defined by NC.

VEGFR2, unphosphorylated = VEGFR2, unphosphorylated (Homo sapiens (Human), UniProt P35968); assay: VEGFR ADP GLO assay; format: biochemical; settings: 5 nM VEGFR2, 1.2 mM ATP, 1 mg/mL Srctide, 180 min
Experimental: Assay buffer stock contains 50 mM HEPES pH7.5, 10 mM MgCl2, 0.01% Brij-35, and 1 mM EGTA.
Unphosphorylated VEGFR2. 52.6 μM in 50 mM Tris-HCl, pH 8.0, 50 mM NaCl, 5% Glycerol, 0.5 mM TCEP. Store at −80° C. in aliquots.
10 mg/mL srctide solution, prepared in Assay buffer (Assay buffer stock with 2 mM DTT, 0.1% Pluronic F-127, and 0.1 mg/mL ovalbumin). Sonicate 10 mg/ml Srctide solution for 10 minutes and then vacuum filter.
Assay buffer. Add DTT to 2 mM, Pluronic F-127 to 0.1% and ovalbumin to 0.1 mg/mL to Assay buffer stock.
2× kinase solution. Make a working solution of 10 nM unphosphorylated VEGFR2 in Assay buffer. Vacuum filter 2× kinase solution prior to running assay. Keep on ice until use.
2× substrate/ATP solution. Make a working solution of 2 mg/mL srctide and 2.4 mM ATP in Assay buffer. Keep on ice until use.
Step 1. Dispensing inhibitors/controls: Using Echo, dispense 10 nL/well compound serial dilutions in DMSO to columns 1-22 (in 384-well plates) or columns 1-44 (in 1536-well plates). Dilution series=11 pt, 3-fold dilutions. The top compound concentration in the source plate is 4 mM. The top compound concentration in the assay plate is 10 uM. Using Echo, dispense 10 nl/well DMSO to column 23 (in 384-well plates) or columns 45-47 (in 1536-well plates). These wells will serve as negative control wells Using Echo, dispense 10 nl/well 400 uM TAK-593 in DMSO to column 24 (in 384-well plates) or column 48 (in 1536-well plates). The final concentration of TAK-593 in the assay should be 1 uM. These wells will serve as positive control wells.
Step 2. Pre-incubation of inhibitors with kinase: Add 2 μL/well 2× kinase solution. Centrifuge at 1000 rpm for 1 min. Incubate at room temperature for 30 min.
Step 3. Kinase cascade reaction: Add 2 μL/well 2× substrate/ATP solution to initiate kinase reactions. Centrifuge at 1000 rpm for 1 min. Incubate at room temperature for 180 min.
Final concentrations of components in the assay:
Step 4. Quench: Add 2 uL/well ADP Glo Reagent+0.05% CHAPS. Centrifuge at 1000 rpm for 1 min; Incubate at room temperature for one hour.
Step 5. Detection: Add 2 uL/well Kinase Detection Reagent+0.05% CHAPS. Centrifuge at 1000 rpm for 1 min; Incubate at room temperature for 1 hour; Read Luminescence on a plate reader.
% Inhibition: % Inhibition=(NC−sample)/(NC−PC)*100 where NC is the mean of negative control (reactions without inhibitor), and PC is the mean of positive control (1 μM TAK-593).
IC50 values are determined from a 4-parameter fit, using the following equation: Y=Bottom+(Top−Bottom)/(1+10^(Log IC50-X)*Hill Slope), where X=log10 of the compound concentration; top can be defined by PC; bottom defined by NC.

[1] = molecular target: His6-TEV-PDGFRβ (557-1016) (Homo sapiens (Human), UniProt P09619); assay: PDGFRβ HTRF Assay; format: biochemical; settings: 800 μM ATP, 0.5 μM TK-substrate biotin peptide, 30 min pre-incubation, 3 hours reaction; read-out: PDGFR HTRF IC50
Experimental: Instrumentation: a. Compound liquid handling: LabCyte Echo; b. Reagent liquid handling: Thermo Scientific Multidrop Combi; c. BMG PHERAStar multilabel plate reader.
Protein Reagent: His6-TEV-PDGFRβ Protein Prep prepared at Accelagen.
Assay buffer stock solution, contains 50 mM Hepes, 10 mM MgCl2, 1 mM EGTA, and 0.01% Brij-35, 0.01% ovalbumin, 2 mM DTT at pH 7.5, in molecular biology grade water. Store at room temperature.
Assay buffer. Dilute 5× Kinase buffer 5-fold with molecular biology grade water and add DTT to 2 mM and ovalbumin to 0.1 mg/mL (or 0.01%).
2× protein solution. Make a working solution of […] PDGFRβ in assay buffer. Keep on ice until use to maintain enzyme stability.
2× substrate solution. Make a working solution of 1.6 mM ATP and 1 μM TK-substrate biotin peptide in assay buffer. 3× quench/detection solution.
Step 2. PDGFRβ E+I pre-incubation: Add 2 μL 2× protein solution to columns 1-24 using the Multidrop Combi. Centrifuge at 1000 rpm for 1 min. Incubate 30 min at RT
Step 2. Enzymatic reaction: Add 2 μL substrate solution to columns 1-24 to initiate the reaction using the Multidrop Combi; cover/seal the assay plate to reduce evaporation. Centrifuge at 1000 rpm for 1 min. Incubate at room temperature for 3 hours.
Final concentrations of components in PDGFRp cascade assay:
0.5 μM TK-substrate biotin peptide
Step 3. Quench/Detection: Add 2 μl 3× quench/detection solution to columns 1-24 using the Multidrop Combi; cover/seal the plate. Centrifuge 1 min 1000 rpm. Incubate at RT for 60 min.
HTRF ratio values calculated by the instrument (Ratio is acceptor counts/donor counts*10,000) is exported from the plate reader and used in data analysis. The exported data will be used to calculate 1) compound activity and 2) assay statistics. […] Assay statistics can include Robust Z′ and Signal to Background.
% Inhibition Calculation: Percent inhibition will be calculated for sample wells based on the equation: […]
IC50 Calculation: For IC50 determination, full 11-point dose response data will be processed using the following equation: […]

[2] = molecular target: Tb-labeled inactive PDGFRβ (Homo sapiens (Human), UniProt P09619); assay: biochemical; format: binding; settings: read-out: PDGFR Lantha IC50
Chain of Tb-labeled inactive PDGFRβ (P09619 whole entry, looked up): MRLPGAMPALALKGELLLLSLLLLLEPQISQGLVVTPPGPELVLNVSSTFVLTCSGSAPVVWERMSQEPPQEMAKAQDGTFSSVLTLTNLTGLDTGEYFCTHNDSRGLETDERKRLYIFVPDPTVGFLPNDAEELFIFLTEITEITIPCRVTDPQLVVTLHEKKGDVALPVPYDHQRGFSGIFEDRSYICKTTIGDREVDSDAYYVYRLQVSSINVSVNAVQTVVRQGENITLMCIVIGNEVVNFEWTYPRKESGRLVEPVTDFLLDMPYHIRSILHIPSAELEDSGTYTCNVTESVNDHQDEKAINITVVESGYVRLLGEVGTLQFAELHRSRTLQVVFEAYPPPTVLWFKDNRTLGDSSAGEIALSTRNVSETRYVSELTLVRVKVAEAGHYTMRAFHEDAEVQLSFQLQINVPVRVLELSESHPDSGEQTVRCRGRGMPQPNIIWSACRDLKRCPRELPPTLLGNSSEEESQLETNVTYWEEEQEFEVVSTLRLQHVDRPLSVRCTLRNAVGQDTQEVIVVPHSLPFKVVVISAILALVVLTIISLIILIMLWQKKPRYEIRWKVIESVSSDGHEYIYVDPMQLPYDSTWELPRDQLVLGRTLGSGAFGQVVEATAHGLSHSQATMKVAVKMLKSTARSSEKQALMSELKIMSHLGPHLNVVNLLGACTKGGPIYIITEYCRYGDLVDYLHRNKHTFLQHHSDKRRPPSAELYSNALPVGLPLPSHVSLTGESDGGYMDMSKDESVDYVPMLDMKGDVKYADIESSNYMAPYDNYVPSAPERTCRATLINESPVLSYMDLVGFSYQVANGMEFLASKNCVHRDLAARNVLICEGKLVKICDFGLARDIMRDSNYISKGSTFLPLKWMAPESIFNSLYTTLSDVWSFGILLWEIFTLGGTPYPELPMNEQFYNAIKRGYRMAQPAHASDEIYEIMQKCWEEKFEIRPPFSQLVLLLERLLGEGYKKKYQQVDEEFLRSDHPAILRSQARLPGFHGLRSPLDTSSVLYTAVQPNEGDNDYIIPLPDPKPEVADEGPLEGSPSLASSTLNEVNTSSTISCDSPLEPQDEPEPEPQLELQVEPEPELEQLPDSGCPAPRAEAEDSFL

Chain of VEGFR2, unphosphorylated (P35968 whole entry, looked up): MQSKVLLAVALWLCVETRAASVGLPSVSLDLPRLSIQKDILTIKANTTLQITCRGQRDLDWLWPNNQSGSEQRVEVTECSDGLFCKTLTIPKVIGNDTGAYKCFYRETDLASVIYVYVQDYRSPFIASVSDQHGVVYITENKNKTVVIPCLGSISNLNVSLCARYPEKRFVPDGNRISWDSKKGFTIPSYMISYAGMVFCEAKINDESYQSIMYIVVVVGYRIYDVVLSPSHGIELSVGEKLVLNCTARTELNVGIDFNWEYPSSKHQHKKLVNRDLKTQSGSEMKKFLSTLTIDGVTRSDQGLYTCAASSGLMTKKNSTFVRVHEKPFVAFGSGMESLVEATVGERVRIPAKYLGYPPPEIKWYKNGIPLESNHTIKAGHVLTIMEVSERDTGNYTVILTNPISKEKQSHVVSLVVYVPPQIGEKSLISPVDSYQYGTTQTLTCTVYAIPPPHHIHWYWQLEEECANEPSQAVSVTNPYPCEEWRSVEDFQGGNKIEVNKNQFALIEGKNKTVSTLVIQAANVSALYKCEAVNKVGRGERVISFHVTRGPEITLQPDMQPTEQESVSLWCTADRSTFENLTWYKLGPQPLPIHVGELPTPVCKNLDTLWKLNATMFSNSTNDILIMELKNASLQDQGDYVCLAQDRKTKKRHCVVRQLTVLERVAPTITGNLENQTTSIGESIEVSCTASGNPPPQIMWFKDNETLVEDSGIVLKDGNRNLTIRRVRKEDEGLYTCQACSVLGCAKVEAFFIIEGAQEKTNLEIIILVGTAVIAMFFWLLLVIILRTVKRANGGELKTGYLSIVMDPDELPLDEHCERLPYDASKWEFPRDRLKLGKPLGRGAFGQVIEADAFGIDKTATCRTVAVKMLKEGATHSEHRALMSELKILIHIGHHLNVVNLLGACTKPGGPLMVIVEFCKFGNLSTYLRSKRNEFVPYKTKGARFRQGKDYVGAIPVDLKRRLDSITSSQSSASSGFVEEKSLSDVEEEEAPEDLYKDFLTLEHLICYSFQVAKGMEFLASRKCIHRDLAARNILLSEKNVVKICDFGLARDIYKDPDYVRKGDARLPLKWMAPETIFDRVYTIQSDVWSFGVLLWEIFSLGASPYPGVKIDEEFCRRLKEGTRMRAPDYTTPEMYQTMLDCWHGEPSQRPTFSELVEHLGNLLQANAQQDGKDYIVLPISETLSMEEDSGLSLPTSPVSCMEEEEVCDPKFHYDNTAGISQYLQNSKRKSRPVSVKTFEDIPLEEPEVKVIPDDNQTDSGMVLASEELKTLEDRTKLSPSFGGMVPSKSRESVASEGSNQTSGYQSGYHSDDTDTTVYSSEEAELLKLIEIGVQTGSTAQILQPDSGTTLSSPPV
Chain of PDGFRβ (Q05030 whole entry, looked up): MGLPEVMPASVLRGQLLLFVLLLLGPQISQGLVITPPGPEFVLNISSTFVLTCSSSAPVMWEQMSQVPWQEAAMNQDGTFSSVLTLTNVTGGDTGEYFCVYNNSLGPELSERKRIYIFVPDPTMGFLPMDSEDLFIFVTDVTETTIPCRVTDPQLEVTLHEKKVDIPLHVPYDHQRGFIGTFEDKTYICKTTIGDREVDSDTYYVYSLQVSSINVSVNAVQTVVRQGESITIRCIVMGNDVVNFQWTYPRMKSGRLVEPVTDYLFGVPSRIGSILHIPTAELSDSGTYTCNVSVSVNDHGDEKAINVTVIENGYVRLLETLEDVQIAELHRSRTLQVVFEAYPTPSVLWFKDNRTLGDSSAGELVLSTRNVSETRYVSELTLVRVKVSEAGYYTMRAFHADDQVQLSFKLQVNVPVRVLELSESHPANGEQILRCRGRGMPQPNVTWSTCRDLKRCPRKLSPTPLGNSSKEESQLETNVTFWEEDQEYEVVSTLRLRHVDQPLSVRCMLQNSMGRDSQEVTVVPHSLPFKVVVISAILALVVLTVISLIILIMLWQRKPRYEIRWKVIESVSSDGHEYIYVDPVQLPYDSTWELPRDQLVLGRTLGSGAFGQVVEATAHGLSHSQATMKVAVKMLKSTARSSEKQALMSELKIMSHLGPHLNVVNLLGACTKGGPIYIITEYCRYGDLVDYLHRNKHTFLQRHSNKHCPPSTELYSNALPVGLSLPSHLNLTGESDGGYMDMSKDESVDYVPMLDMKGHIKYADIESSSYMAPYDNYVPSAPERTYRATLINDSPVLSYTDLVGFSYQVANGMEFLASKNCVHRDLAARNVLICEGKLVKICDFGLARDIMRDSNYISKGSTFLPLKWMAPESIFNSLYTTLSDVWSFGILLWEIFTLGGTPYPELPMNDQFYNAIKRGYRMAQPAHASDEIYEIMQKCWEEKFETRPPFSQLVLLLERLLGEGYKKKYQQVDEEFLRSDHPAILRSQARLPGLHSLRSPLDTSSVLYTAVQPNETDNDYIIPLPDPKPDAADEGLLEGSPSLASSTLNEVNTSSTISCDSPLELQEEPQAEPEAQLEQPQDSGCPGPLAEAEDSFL
Chain of His6-TEV-PDGFRβ (557-1016) (P09619 whole entry, looked up): as the sequence (P09619 whole entry, looked up) above

SMILES | IC50 (PDGFRβ) [nM] | IC50 (VEGFR2, unphosphorylated) [nM] | IC50 [1] [nM] | IC50 [2] [nM] | IC50 (PDGFRβ; A10 cells, 3 hours compound, 15 ng/mL PDGFbb for 10 minutes, read-out: PDGFR Cellular IC50) [nM]
Cc1ncc(C(=O)NCCN2CCC3(CCC3)C2)cc1Nc1nn(C)c2nc(Nc3cnn(C)c3)ncc12 [Example 83, N-(2-(6-azaspiro[3.4]octan-6-yl)ethyl)-6-methyl-5-((1-methyl-6-((1-methyl-1H-pyrazol-4-yl)amino)-1H-pyrazolo[3,4-d]pyrimidin-3-yl)amino)nicotinamide] | 26.2 | > 7500 |  |  | 
COC1CCN(CCNC(=O)c2cnc(C)c(Nc3nn(C)c4nc(Nc5cnn(C)c5)ncc34)c2)CC1 [Example 22, N-(2-(4-methoxypiperidin-1-yl)ethyl)-6-methyl-5-((1-methyl-6-((1-methyl-1H-pyrazol-4-yl)amino)-1H-pyrazolo[3,4-d]pyrimidin-3-yl)amino)nicotinamide] | 88.7 | > 7500 |  |  | 
Cc1ncc(C(=O)NCCN2CC3COCC3C2)cc1Nc1nn(C)c2nc(Nc3cnn(C)c3)ncc12 (stereo not shown) [Example 26, 6-methyl-5-((1-methyl-6-((1-methyl-1H-pyrazol-4-yl)amino)-1H-pyrazolo[3,4-d]pyrimidin-3-yl)amino)-N-(2-(tetrahydro-1H-furo[3,4-c]pyrrol-5(3H)-yl)ethyl)nicotinamide] | 92.5 | > 7500 |  |  | 
Cc1ncc(C(=O)NCCN2CCCC2(C)C)cc1Nc1nn(C)c2nc(NC3CCS(=O)(=O)CC3)ncc12 [Example 45, N-(2-(2,2-dimethylpyrrolidin-1-yl)ethyl)-5-((6-((1,1-dioxido-tetrahydro-2H-thiopyran-4-yl)amino)-1-methyl-1H-pyrazolo[3,4-d]pyrimidin-3-yl)amino)-6-methylnicotinamide] |  | > 10000 | 51 | 1640 | 
Cn1nc(Nc2cc(C(=O)NCCN3CCCC3(C)C)ccc2F)c2cnc(Nc3ccnnc3)nc21 [Example 50, N-(2-(2,2-dimethylpyrrolidin-1-yl)ethyl)-4-fluoro-3-((1-methyl-6-(pyridazin-4-ylamino)-1H-pyrazolo[3,4-d]pyrimidin-3-yl)amino)benzamide] | 45.8 | > 7500 |  |  | 
COCC1CCCN1CCNC(=O)c1cnc(C)c(Nc2nn(C)c3nc(Nc4cnn(C)c4)ncc23)c1 (stereo not shown) [Example 25, N-(2-(2-(methoxymethyl)pyrrolidin-1-yl)ethyl)-6-methyl-5-((1-methyl-6-((1-methyl-1H-pyrazol-4-yl)amino)-1H-pyrazolo[3,4-d]pyrimidin-3-yl)amino)nicotinamide] | 12.9 | > 7500 |  |  | 
Cc1ncc(C(=O)NCCN2CC[C@@H](C)C2)cc1Nc1nn(C)c2nc(Nc3cncnc3)ncc12 [Example 59, (R)-6-methyl-5-((1-methyl-6-(pyrimidin-5-ylamino)-1H pyrazolo-[3,4-d]pyrimidin-3-yl)amino)-N-(2-(3-methylpyrrolidin-1-yl)ethyl)nicotinamide] |  | > 7500 |  |  | 190
Cc1ncc(C(=O)NCCN2CCOCC23CC3)cc1Nc1nn(C)c2nc(Nc3cnn(C)c3)ncc12 [Example 24, N-(2-(7-oxa-4-azaspiro[2.5]octan-4-yl)ethyl)-6-methyl-5-((1-methyl-6-((1-methyl-1H-pyrazol-4-yl)amino)-1H-pyrazolo[3,4-d]pyrimidin-3-yl)amino)nicotinamide] | 22.1 | > 7500 |  |  | 
Cc1ncc(C(=O)NCCN2CCCC23CC3)cc1Nc1nn(C)c2nc(Nc3cnn(C)c3)ncc12 [Example 53, N-(2-(4-azaspiro[2.4]heptan-4-yl)ethyl)-6-methyl-5-((1-methyl-6-((1-methyl-1H-pyrazol-4-yl)amino)-1H-pyrazolo[3,4-d]pyrimidin-3-yl)amino)nicotinamide] | 6.2 | 4270 |  |  | 
Cc1ncc(C(=O)NCCN2CCC3(CCO3)CC2)cc1Nc1nn(C)c2nc(Nc3cnn(C)c3)ncc12 [Example 19, N-(2-(1-oxa-7-azaspiro[3.5]nonan-7-yl)ethyl)-6-methyl-5-((1-methyl-6-((1-methyl-1H-pyrazol-4-yl)amino)-1H-pyrazolo[3,4-d]pyrimidin-3-yl)amino)nicotinamide] | 56 | > 7500 |  |  | 
Cc1ncc(C(=O)NCCN2CCS(=O)(=O)CC2)cc1Nc1nn(C)c2nc(Nc3cnn(C)c3)ncc12 [Example 23, N-(2-(1,1-dioxidothiomorpholino)ethyl)-6-methyl-5-((1-methyl-6-((1-methyl-1H-pyrazol-4-yl)amino)-1H-pyrazolo[3,4-d]pyrimidin-3-yl)amino)nicotinamide] | 294 | > 7500 |  |  | 
Cc1ncc(C(=O)NCCN2CCC3(CC2)COC3)cc1Nc1nn(C)c2nc(Nc3cnn(C)c3)ncc12 [Example 20, N-(2-(2-oxa-7-azaspiro[3.5]nonan-7-yl)ethyl)-6-methyl-5-((1-methyl-6-((1-methyl-1H-pyrazol-4-yl)amino)-1H-pyrazolo[3,4-d]pyrimidin-3-yl)amino)nicotinamide] | 168 | > 7500 |  |  | 
